Each structure is given as a SMILES string. pIC50: −log10 of the molar value. Where only a bound is given, the exact number is not on record here.

The first assay has as its system A673. Description: Inhibition of cell proliferation of human A673 cells incubated for 72 hrs by CyQUANT assay. It counts as functional, cell-based. Particulars: A673, 72 h.
Consider `Clc1cnc(N[C@H]2CCCNC2)nc1-c1c[nH]c2cccnc12`, for which the pIC50 (as a rule, −log10 of the IC50, conventionally taken in molar units) is 7.70.

As to `C[C@@H]1CNC[C@@H](Nc2ncc(Cl)c(-c3c[nH]c4ccccc34)n2)C1`, the pIC50 is 7.70.

Turning to `Fc1cccc2c(-c3nc(N[C@H]4CCCNC4)ncc3Cl)n[nH]c12`, the pIC50 is > 7.70.

With `FC(F)(F)c1cnc(N[C@H]2CCCNC2)nc1-c1c[nH]c2ccc(Cl)cc12`, the pIC50 was > 7.70.

`Cc1ccc2[nH]cc(-c3nc(N[C@H]4CCCNC4)ncc3Cl)c2c1` had a pIC50 of 6.70.

For the compound `CCc1cnc(N[C@H]2CCCNC2)nc1-c1n[nH]c2ccccc12`, the pIC50 is 7.70.

Regarding `CCc1cnc(N[C@H]2CCCNC2)nc1-c1c[nH]c2c(C)cccc12`, the pIC50 is 7.70.

As for `FC(F)(F)c1cnc(N[C@H]2CCCNC2)nc1-c1c[nH]c2ccc(-c3cn[nH]c3)cc12`, the pIC50 is 6.70.

In the case of `Clc1cnc(N[C@@H]2CCCNC2)nc1-c1c[nH]c2ccccc12`, the pIC50 was 7.70.

`COCCn1cc(-c2nc(N[C@H]3CCCNC3)ncc2Cl)c2ccccc21`: the pIC50 is 6.70.

As to `Cc1cccc2c(-c3nc(N[C@H]4CCCNC4)ncc3C(F)(F)F)c[nH]c12`, the pIC50 is > 7.70.

Regarding `Cn1cc(-c2ccc3c(-c4nc(N[C@H]5CCCNC5)ncc4C(F)(F)F)c[nH]c3c2)cn1`, the pIC50 was > 7.70.

`OC1CCC(c2cccc3c(-c4nc(N[C@H]5CCCNC5)ncc4C(F)(F)F)c[nH]c23)CC1` (stereo partly drawn): the pIC50 was > 7.70.

On to `FC(F)(F)c1cnc(N[C@@H]2CNC[C@H](c3nnc4ccccn34)C2)nc1-c1c[nH]c2ccccc12`, for which the pIC50 was ≥ 7.70.

In turn, `FC(F)(F)c1cnc(N[C@H]2CCCNC2)nc1-c1n[nH]c2ccccc12` had a pIC50 of 7.70.

For `CC(=O)c1cccc2c(-c3nc(N[C@H]4CCCNC4)ncc3Cl)c[nH]c12`, the negative-log IC50 (pIC50) was > 7.70.

The compound `CCc1cnc(N[C@@H]2CCCNC2)nc1-c1n[nH]c2ncccc12` showed a negative logarithm of the IC50 (pIC50) of 7.70.

In turn, `CC1CCC(Nc2ncc(Cl)c(-c3c[nH]c4ccccc34)n2)CN1` (stereo not drawn) showed a pIC50 of 7.70.

On to `N#Cc1cccc2c(-c3nc(N[C@H]4CCCNC4)ncc3C(F)(F)F)c[nH]c12`, for which the pIC50 was > 7.70.

In turn, `Cc1cnc(N[C@H]2CCCNC2)nc1-c1c[nH]c2ccccc12` had a pIC50 of 7.70.

`COCCn1cc(-c2nc(N[C@H]3CCCNC3)ncc2C(F)(F)F)c2ccccc21`: the pIC50 is 6.70.

For `CNC(=O)[C@@H]1CNC[C@H](Nc2ncc(C(F)(F)F)c(-c3c[nH]c4ccccc34)n2)C1`, the pIC50 was 7.70.

Regarding `CNC(=O)[C@@H]1CNC[C@@H](Nc2ncc(C(F)(F)F)c(-c3c[nH]c4ccccc34)n2)C1`, the pIC50 was 6.70.

As for `Cn1cc(-c2ccc3[nH]cc(-c4nc(N[C@H]5CCCNC5)ncc4C(F)(F)F)c3c2)cn1`, the pIC50 was 6.70.

`Clc1cnc(NC2CNCCC2c2ccccc2)nc1-c1c[nH]c2ccccc12` (stereo not drawn): the negative logarithm of the IC50 (pIC50) is 6.70.

On to `C[C@H](O)c1cnc(N[C@H]2CCCNC2)nc1-c1c[nH]c2ccccc12`, for which the negative logarithm of the IC50 (pIC50) is 6.70.

Turning to `Cc1cccc2c(-c3nc(N[C@H]4CCCNC4)ncc3CC(C)C)c[nH]c12`, the negative-log IC50 (pIC50) is 6.70.

`CC(C)n1cc(-c2nc(N[C@H]3CCCNC3)ncc2Cl)c2ccccc21` showed a pIC50 of 6.70.

`Clc1cnc(N[C@H]2CCCNC2)nc1-c1c[nH]c2c(N3CCOCC3)cccc12` gave a pIC50 of 7.70.

`CC1NCCCC1Nc1ncc(Cl)c(-c2c[nH]c3ccccc23)n1` (stereo not drawn) gave a negative logarithm of the IC50 (pIC50) of 7.70.

`O[C@H]1CC[C@@H](c2cccc3c(-c4nc(N[C@H]5CCCNC5)ncc4C(F)(F)F)c[nH]c32)CC1` gave a pIC50 of 6.70.

In turn, `Clc1cnc(N[C@H]2CCCNC2)nc1-c1c[nH]c2ccncc12` had a pIC50 of 7.70.

Compound `Cc1cccc2c(-c3nc(N[C@H]4CCCNC4)ncc3F)c[nH]c12` showed a pIC50 of 6.70.

`C[C@@H](O)c1cnc(N[C@H]2CCCNC2)nc1-c1c[nH]c2ccccc12`: the pIC50 is 6.70.

Take `CNC(=O)[C@H]1CNC[C@@H](Nc2ncc(C(F)(F)F)c(-c3c[nH]c4ccccc34)n2)C1`: the pIC50 was 6.70.

As for `CC1(Nc2ncc(Cl)c(-c3c[nH]c4ccccc34)n2)CCCNC1` (stereo not drawn), the pIC50 is 6.70.

In turn, `C[C@H]1CCNC[C@@H]1Nc1ncc(Cl)c(-c2c[nH]c3ccccc23)n1` showed a negative-log IC50 (pIC50) of 6.70.

As to `Clc1cnc(N[C@H]2CCCNC2)nc1-c1c[nH]c2ccccc12`, the pIC50 is ≥ 7.70.

For `FC(F)(F)c1cnc(N[C@H]2CNC[C@@H](c3nnc4ccccn34)C2)nc1-c1c[nH]c2ccccc12`, the pIC50 was 6.70.

`FC(F)(F)c1cnc(N[C@H]2CCCNC2)nc1-c1c[nH]c2cc(-c3cn[nH]c3)ccc12` showed a pIC50 of 7.70.

In turn, `CCOP(=O)(OCC)c1ccc2c(-c3nc(N[C@H]4CCCNC4)ncc3C(F)(F)F)c[nH]c2c1` had a negative logarithm of the IC50 (pIC50) of 7.70.

Compound `Clc1cnc(N[C@H]2CCCNC2)nc1-c1cn(-c2ccccc2)c2ccccc12` showed a negative logarithm of the IC50 (pIC50) of 6.70.

Consider `FC(F)(F)c1cnc(N[C@H]2CCCNC2)nc1-c1c[nH]c2c(Cl)cccc12`, for which the pIC50 was > 7.70.

Turning to `Brc1cnc(N[C@@H]2CCCNC2)nc1-c1c[nH]c2ccccc12`, the pIC50 was > 7.70.

Compound `F[C@@H]1CCNC[C@H]1Nc1ncc(Cl)c(-c2c[nH]c3ccccc23)n1` showed a pIC50 of 7.70.

`CNC(=O)c1ccc2c(-c3nc(N[C@H]4CCCNC4)ncc3C(F)(F)F)c[nH]c2c1` had a negative logarithm of the IC50 (pIC50) of 7.70.

Turning to `Fc1cc2[nH]nc(-c3nc(N[C@H]4CCCNC4)ncc3C(F)(F)F)c2cc1F`, the pIC50 is > 7.70.

Compound `CC1(C)CCNC[C@@H]1Nc1ncc(C(F)(F)F)c(-c2c[nH]c3ccccc23)n1` (single isomer, unassigned) had a negative-log IC50 (pIC50) of 7.70.

As for `O[C@@H]1CCNC[C@H]1Nc1ncc(Cl)c(-c2c[nH]c3ccccc23)n1`, the pIC50 was 6.70.

Compound `CNC(=O)[C@H]1CNC[C@H](Nc2ncc(C(F)(F)F)c(-c3c[nH]c4ccccc34)n2)C1` gave a pIC50 of 7.70.

Regarding `Clc1cnc(N[C@H]2CCCNC2)nc1-c1c[nH]c2ccc(N3CCOCC3)cc12`, the pIC50 is 7.70.

With `Cc1[nH]c2ccccc2c1-c1nc(N[C@H]2CCCNC2)ncc1Cl`, the pIC50 is 7.70.

The compound `O=C(O)c1cccc2c(-c3nc(N[C@H]4CCCNC4)ncc3Cl)c[nH]c12` had a pIC50 of 6.70.

Compound `Clc1cnc(NC2(c3ccccc3)CCCNC2)nc1-c1c[nH]c2ccccc12` (stereo not drawn) gave a pIC50 of 6.70.

As for `CC1(C)CCNC[C@H]1Nc1ncc(C(F)(F)F)c(-c2c[nH]c3ccccc23)n1`, the pIC50 is 6.70.

In turn, `CCc1cnc(N[C@H]2CCCNC2)nc1-c1c[nH]c2ncc(F)cc12` had a pIC50 of 6.70.

Regarding `FC(F)(F)Cc1cnc(N[C@H]2CCCNC2)nc1-c1n[nH]c2ccccc12`, the pIC50 was 7.70.

Consider `Fc1cccc2c(-c3nc(N[C@H]4CCCNC4)ncc3C(F)(F)F)n[nH]c12`, for which the pIC50 is > 7.70.

`CCc1cnc(N[C@H]2CCCNC2)nc1-c1c[nH]c2ccccc12` showed a pIC50 of 7.70.

Regarding `N#Cc1ccc2[nH]cc(-c3nc(N[C@H]4CCCNC4)ncc3C(F)(F)F)c2c1`, the pIC50 is 6.70.

Turning to `CCOP(=O)(OCC)c1ccc2[nH]cc(-c3nc(N[C@H]4CCCNC4)ncc3C(F)(F)F)c2c1`, the pIC50 is 6.70.

Another assay deals with HCC70. Description: Inhibition of cell proliferation of human HCC70 cells incubated for 72 hrs by CyQUANT assay. It counts as functional, cell-based. To be noted: HCC70, 72 h.
The compound `FC(F)(F)c1cnc(N[C@H]2CCCNC2)nc1-c1c[nH]c2cc(-c3cccc(Oc4ccccc4)c3)ccc12` had a pIC50 of 6.00.

For `CN1CCC[C@H](Nc2ncc(C(F)(F)F)c(-c3c[nH]c4cc(S(=O)(=O)N5CCC(C)(O)C5)ccc34)n2)C1` (stereo partly drawn), the negative logarithm of the IC50 (pIC50) is 6.00.

The record behind these values is ChEMBL document CHEMBL4742388, “Inhibitors of cyclin-dependent kinase 7 (cdk7)” (2019).
